Measured values: patent US12286437B2, “Cardiac sarcomere inhibitors” (Cytokinetics, Inc., priority 2021, dated 2025)

Tests used:
[1] = Dog cassette dosing pharmacokinetics; assay type: in vivo, beagle dogs; settings: male, beagle, plasma, IV; for Vd: read-out: Vss; for half-life: read-out: t½ (converted)
Procedure: Non-naïve male beagle dogs (8 months to 3 years of age, body weight 8-14 kg) sourced from Jiangsu Johnsen Bioresource CO. and/or Beijing Rixinkeji CO., LTD and/or Beijing Marshall Biotechnology CO., LTD were used in this study. All animals for IV administration had free access to food and water. The IV dose solution was prepared in 10% DMA/50% PG/40% HPβCD solution (40% w/v aqueous HPβCD) at a concentration of 0.2 mg/mL. Concentrations of IV dose was measured at the end of the study. PK parameters were calculated using the nominal dose values if the measured values were within 20% of the nominal values. Blood samples were collected by venipuncture of peripheral veins except the dosing vein at pre-dose, 5 15, 30 min, 1, 2, 4, 6, 8 and 24 h post-dose. Blood samples were centrifuged and resultant plasma was frozen for bioanalysis. Plasma samples were stored at −80° C. before analysis. Plasma samples were analyzed for compound concentrations using the LC/MS/MS method. Briefly, a 50 μL aliquot of each plasma sample was mixed with 100 μL of acetonitrile that contained an internal standard. The mixture was vortexed and centrifuged. Ten (10) μL of the resulting solution was injected onto a reverse-phase C18 column and the resultant peaks detected on a LC/MS/MS equipped with a turbo ionspray ionization source. Sample concentrations below the limit of quantification (BLQ) were treated as zero for PK calculations. PK parameters were estimated from individual animals using noncompartmental analysis of the concentration-time data (Phoenix WinNonLin software, version 64; Pharsight, Mountain View, CA). The elimination rate constant (k) was calculated as the absolute value of the slope of the linear regression of logarithm (log) of the concentration versus time for the last three data points of the concentration-time profiles. Apparent elimination half-life (t1/2) values were calculated as ln(2)/k. Area under the concentration-time curve (AUC) values were estimated using linear trapezoidal method. AUCt values were calculated from the dosing time to the last measurable concentration. AUC∞ values were calculated as the sum of the corresponding AUCt and the ratio of the last detectable concentration divided by k. Plasma clearance (CL) was calculated from Dose/AUC∞. Mean resident time extrapolated to infinity (MRT∞) was estimated by moment analysis. Vss was calculated from MRT∞×CL. Maximum concentration (Cmax) and time to reach Cmax (tmax) were recorded as observed. As this was a cross-over study, bioavailability was calculated dAUC∞,po/dAUC∞,iv×100% where dAUC was the dose normalized AUC value from the same animal given IV and PO dose. Data for compounds tested are provided in Table G. Compounds tested were prepared in accordance with the synthetic procedures described herein.

[2] = Rat single dose pharmacokinetics; assay type: in vivo, Sprague Dawley rats; settings: male, Sprague Dawley, plasma, IV; for Vd: read-out: Vss
Procedure: Male Sprague Dawley rats were obtained from Zhejiang Vital River Laboratory Animal Technology Co., Ltd. The animals in IV group had free access to water and food. The animals in PO group were fasted overnight before dosing and provided with food 2 hours post dosing. The IV dose solution was prepared in 10% DMA/50% PG/40% HPβCD solution (40% w/v aqueous HPβCD) at a concentration of 1 mg/mL. The oral dosing suspension was prepared by suspending Test Article in 0.5% HPMC/0.1% Tween 80 in water at a concentration 0.2 mg/mL. Concentrations of IV and PO doses were measured at the end of the study. Pharmacokinetic parameters were calculated using the nominal dose values if the measured values were within 20% of the nominal values. Three rats were dosed IV via a bolus injection via caudal vein. Three rats per dose group were dosed by oral gavage. Blood samples were collected from the jugular vein cannula at predose, 5 (IV only), 15, 30 minutes, and 1, 2, 4, 6, and 24 hours post-dose. Blood volumes were replaced with an equal amount of sterile 0.9% saline. Blood samples were centrifuged and the collected plasma was stored at −80° C. for subsequent analysis. Plasma samples were analyzed for Test Article concentrations using a LC/MS/MS method. Briefly, a 50 μL aliquot of each plasma sample was mixed with 100 μL of acetonitrile that contained an internal standard. The mixture was vortexed and centrifuged. Ten (10) […] of the resulting solution was injected onto a reverse-phase C18 column and the resultant peaks detected on a LC/MS/MS equipped with a turbo ionspray ionization source. Sample concentrations below the limit of quantification (BLQ) were treated as zero for pharmacokinetic calculations. Pharmacokinetic parameters were estimated from individual animals using noncompartmental analysis of the concentration-time data (Phoenix WinNonLin software, version 64; Pharsight, Mountain View, CA). The elimination rate constant (k) was calculated as the absolute value of the slope of the linear regression of logarithm (log) of the concentration versus time for the last three data points of the concentration-time profiles. Apparent elimination half-life (t1/2) values were calculated as ln(2)/k. Area under the concentration-time curve (AUC) values were estimated using linear trapezoidal method. AUCt values were calculated from the dosing time to the last measurable concentration. AUC∞ values were calculated as the sum of the corresponding AUCt and the ratio of the last detectable concentration divided by k (AUCt-∞). Plasma clearance (CL) was calculated from Dose/AUC∞. Mean resident time (MRT) was estimated by moment analysis. Volume of distribution at steady state (Vss) was calculated from MRT∞×CL. Maximum concentration (Cmax) and time to reach Cmax (tmax) were recorded as observed. Bioavailability was calculated from the ratio of dose normalized AUC∞,po of individual rats/mean dAUC∞,iv×100% where dAUC was the dose normalized AUC value. Compounds tested were prepared in accordance with the synthetic procedures described herein.

CYP2D6 = target: T1, CYP2D6 (Homo sapiens, UniProt P10635); experiment: Time-dependent inhibition of CYP2D6 in human liver microsomes; assay type: in vitro ADME; settings: for (% Activity NADPH T0)/(% Activity NADPH T30): fold change; for activity at 30 min, 25 µM / activity at 0 min, 25 µM / activity at 30 min, 50 µM / activity at 0 min, 50 µM: pooled human liver microsomes, human liver microsomes; for activity at 30 min, 25 µM / activity at 30 min, 50 µM: after 30 minutes incubation, read-out: % Activity NADPH T30; for activity at 0 min, 25 µM / activity at 0 min, 50 µM: time zero, read-out: % Activity NADPH T0
T1 construct: Pooled human microsomes and selective CYP probe substrates were used; from tissue; host or cells: pooled human liver microsomes
T1 sequence (P10635 whole entry): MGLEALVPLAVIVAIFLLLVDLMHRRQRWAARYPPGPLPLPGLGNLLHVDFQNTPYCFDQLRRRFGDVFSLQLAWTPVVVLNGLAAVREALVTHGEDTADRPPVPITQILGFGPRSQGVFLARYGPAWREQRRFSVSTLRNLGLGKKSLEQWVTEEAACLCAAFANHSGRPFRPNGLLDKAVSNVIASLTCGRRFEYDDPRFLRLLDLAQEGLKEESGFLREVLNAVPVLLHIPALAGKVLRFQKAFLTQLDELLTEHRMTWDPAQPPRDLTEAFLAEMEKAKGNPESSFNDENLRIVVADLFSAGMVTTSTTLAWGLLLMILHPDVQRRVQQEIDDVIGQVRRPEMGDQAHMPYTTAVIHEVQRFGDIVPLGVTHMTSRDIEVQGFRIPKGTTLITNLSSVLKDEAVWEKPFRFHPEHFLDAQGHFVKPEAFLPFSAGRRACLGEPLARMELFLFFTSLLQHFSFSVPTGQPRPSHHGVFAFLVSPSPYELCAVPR
Procedure: An assessment of the time-dependent Inhibitory Potential of the test compounds against Principal Human Cytochrome P450 Isozymes using Human Liver Microsomes was also carried out using standard methods (Grimm et al, Drug Metab. Dispos., July; 37(7):1355-70. doi: 10.1124/dmd.109.026716, 2009). Pooled human microsomes and selective CYP probe substrates were used for in vitro assessment of test compounds at 25 and 50 μM as time-dependent inhibitors of […] human hepatic cytochrome P450 isozymes (CYP1A2, 2B6, 2C9, 2C19, 2D6, and 3A4). LC-MS/MS was used to quantify metabolite formation. The inhibition of each P450 enzyme in human liver microsomes was measured as the percentage decrease in the activity of marker metabolite formation as measured by LC-MS/MS compared to non-inhibited controls (=100% activity) at time zero and after 30 minutes incubation. The occurrence of any time dependent inhibition was then expressed as the fold change in enzyme activity at time zero relative to the activity after 30 minutes incubation.

Row | Structure (SMILES) | clearance [1] [mL/min/kg] | Vd [1] [L/kg] | half-life [1] [h] | clearance [2] [mL/min/kg] | half-life [2] [h] | Vd [2] [L/kg] | (% Activity NADPH T0)/(% Activity NADPH T30) (CYP2D6; CYP2D6, 25 μM) | (% Activity NADPH T0)/(% Activity NADPH T30) (CYP2D6; CYP2D6, 50 μM) | activity at 30 min, 25 µM (CYP2D6; CYP2D6, 25 μM) [%] | activity at 0 min, 25 µM (CYP2D6; CYP2D6, 25 μM) [%] | activity at 30 min, 50 µM (CYP2D6; CYP2D6, 50 μM) [%] | activity at 0 min, 50 µM (CYP2D6; CYP2D6, 50 μM) [%] | (% Activity NADPH T0)/(% Activity NADPH T30) (CYP2D6; CYP2D6, 50 μM, listed as compound 4) | (% Activity NADPH T0)/(% Activity NADPH T30) (CYP2D6; CYP2D6, 50 μM, listed as compound 6)
1 | CC(C)N1CC(=O)N(Cc2ccc(Cl)c(F)c2)C2(CN(c3cccnn3)C2)C1=O [Compound 8, 5-(4-chloro-3-fluorobenzyl)-8-isopropyl-2-(pyridazin-3-yl)-2,5,8-triazaspiro[3.5]nonane-6,9-dione] | 15.6 | 6.26 | 5.66 | 79.9 | 1.2 | 5.22 | 0.9 | 1.0 | 98 | 92 | 91 | 87 | – | –
2 | C[C@H]1CC[C@H](N2CC(=O)N(Cc3ccc(F)c(F)c3)C3(CN(C=O)C3)C2=O)CC1 [Compound 4, 5-(3,4-difluorobenzyl)-8-((1r,4r)-4-methylcyclohexyl)-6,9-dioxo-2,5,8-triazaspiro[3.5]nonane-2-carbaldehyde] | – | – | – | – | – | – | 1.3 | 1.1 | – | – | – | – | no change in activity | –
3 | Cc1cc(CN2C(=O)CN([C@H]3CC[C@H](C)CC3)C(=O)C23CN(C(N)=O)C3)ccc1F [Compound 6, 5-(4-fluoro-3-methylbenzyl)-8-((1r,4r)-4-methylcyclohexyl)-6,9-dioxo-2,5,8-triazaspiro[3.5]nonane-2-carboxamide] | 9.08 | 3.98 | 7.11 | 76.6 | 2 | 10.1 | 1.3 | 1.2 | 87 | 112 | 92 | 107 | – | no change in activity
4 | C[C@H]1CC[C@H](N2CC(=O)N(Cc3ccc(F)c(F)c3)C3(CN(C(N)=O)C3)C2=O)CC1 [Compound 5, 5-(3,4-difluorobenzyl)-8-((1r,4r)-4-methylcyclohexyl)-6,9-dioxo-2,5,8-triazaspiro[3.5]nonane-2-carboxamide] | 9.26 | 6.17 | 9.86 | 71.1 | 3.04 | 13.7 | 1.1 | 1.1 | 89 | 98 | 84 | 94 | – | –
5 | C[C@H]1CC[C@H](N2CC(=O)N(Cc3ccc(Cl)cc3)C3(CN(C(N)=O)C3)C2=O)CC1 [Compound 18, 5-(4-chlorobenzyl)-8-((1r,4r)-4-methylcyclohexyl)-6,9-dioxo-2,5,8-triazaspiro[3.5]nonane-2-carboxamide] | 7.07 | 4.29 | 9.08 | 63.6 | 2.15 | 9.48 | 1.0 | 1.1 | 105 | 103 | 91 | 104 | – | –
6 | CC(C)N1CC(=O)N(Cc2ccc(C(F)(F)F)cc2)C2(CN(c3cccnn3)C2)C1=O [Compound 13, 8-isopropyl-2-(pyridazin-3-yl)-5-(4-(trifluoromethyl)benzyl)-2,5,8-triazaspiro[3.5]nonane-6,9-dione] | 11.5 | 3.72 | 4.16 | 38.9 | 0.95 | 2.17 | 1.0 | 1.4 | 100 | 96 | 72 | 98 | – | –
7 | C[C@H]1CC[C@H](N2CC(=O)N(Cc3ccc(F)c(Cl)c3)C3(CN(C(N)=O)C3)C2=O)CC1 [Compound 7, 5-(3-chloro-4-fluorobenzyl)-8-((1r,4r)-4-methylcyclohexyl)-6,9-dioxo-2,5,8-triazaspiro[3.5]nonane-2-carboxamide] | 9.22 | 6.33 | 10.9 | 61.9 | 2.1 | 12.6 | 0.9 | 0.9 | 88 | 80 | 95 | 87 | – | –
